The nature of series [1]: Form A and Form B interconversion (competitive) slurries. Type of series: physicochemical. The note with it: between 2° C. and 72° C. Here is the method: Relative thermodynamic stabilities of anhydrous/non-solvated Forms A and B were studied at 2-8° C., room temperature (RT) and at 71-72° C. via interconversion (competitive) slurries. In these slurries, a given solvent system was pre-saturated with compound 092 (Form A+minor Form B) at the stated temperature, and a portion of the liquid phase was filtered into a mixture of solids containing relatively equal amounts of Form A and Form B. Interconversion slurries at 2-8° C. and RT were allowed to stir for 22 days, while slurries at 71-72° C. stirred for shorter duration (2-4 days). […] The results are reported in table 13 below where: liquid phase for each slurry was pre-saturated using as-received Form A+minor Form B; solvent ratios are v/v; water activity values were calculated using UNIFAC calculator at RT; and times and temperatures are approximate.

The nature of series [2]: Stable polymorph form screen (slurry experiments). In kind it is physicochemical. To be noted: between 2° C. and 73° C. On the procedure:
Slurry experiments were conducted to identify the stable form at various conditions. In these experiments, saturated solutions in various solvents containing excess undissolved solids (starting with Form A+minor Form B) were stirred for extended durations. Slurries at room temperature (RT) and 2-8° C. were typically conducted for approximately 2 weeks, while slurries at 72-73° C. were stirred for a shorter duration (1 day) to minimize the potential for decomposition. […] The results are shown in the table 12 where the time and temperatures are approximate.

For `CC1(NC(=O)c2cccc3nn(-c4cccnc4)cc23)CC1` [Form A, N-(1-methylcyclopropyl)-2-(3-pyridinyl)-2H-indazole 4-carboxamide], in series [1], the “relative thermodynamic stability of Forms A and B (competitive slurries)” value was “thermodynamically stable form”. Further, the “relative stability of polymorph forms (slurry screen)” value in series [2] was “more stable than Form B”.

For the origin of these results see US20250154124A1, “PROCESSES FOR THE PREPARATION OF N-(1-METHYLCYCLOPROPYL)-2-(3-PYRIDINYL)-2H-INDAZOLE-4-CARBOXAMIDE AND INTERMEDIATES THEREOF” (FMC CORPORATION, priority 2022, published 2025).
